Assay [1] relates to insulin-producing cell population obtained by the differentiation from iPS cells (CHGA-negative cells; insulin-positive and NKX6.1-positive cells). As to the kind of experiment: Insulin-producing cell population treated with PLK inhibitor for 7 days in 30 mL reactor for culture (Example 2). Format: cell-based. The settings on record: 3 μM, 7 days treatment.
Method: Specifically, the endocrine progenitor cell population obtained by the differentiation from iPS cells was cultured for 4 days in a medium for induction of differentiation in a 30 mL reactor for culture and thereby differentiated into an insulin-producing cell population.
For a control, the endocrine progenitor cell population obtained by the differentiation from iPS cells was cultured for 11 days in a medium for induction of differentiation in a 30 mL reactor for culture and thereby differentiated into an insulin-producing cell population.
For assay [2] the test system is unchanged. As to the kind of experiment: Flow cytometry of insulin-producing cell population treated with PLK inhibitor for last 4 days of differentiation (Example 1). Format: cell-based. The conditions noted are these: 3 μM; for Proportion of CHGA-negative and Ki67-negative cells / Proportion of CHGA-negative and Ki67-positive cells / Proportion of insulin-positive and NKX6.1-positive cells: 4 days treatment, flow cytometry. In general terms: Flow cytometry measures light scatter and fluorescence of single cells or particles in a stream.
From the text: The number of CHGA-negative (and Ki67-positive or Ki67-negative) cells in the cell population obtained by each of the above methods 1) and 2) was counted by flow cytometry to determine the proportion of unintended cells, that is, a CHGA-negative (and Ki67-positive or Ki67-negative) rate, in each cell population.
The number of insulin-positive and NKX6.1-positive cells in the cell population obtained by each of the above methods 1) and 2) was counted by flow cytometry to determine the proportion of the cells of interest, that is, insulin-positive and NKX6.1-positive cells, in each method.

The mark [3] stands for this setting: last 4 days of differentiation into insulin-producing cells.

In the case of `COc1ccc2c(c1)[C@@]1(C[C@@H]1c1ccc3c(/C=C/c4ccc(CN5C[C@@H](C)O[C@@H](C)C5)cc4)n[nH]c3c1)C(=O)N2` [CAS1338800-06-8, (1S,2R)-2-[3-[(1E)-2-[4-[[(2R,6S)-2,6-dimethyl-4-morpholinyl]methyl]phenyl]ethenyl]-1H-indazol-6-yl]-5′-methoxy-spiro[cyclopropane-1,3′-[^3H]indol]-2′(1′H)-one], in assay [1], the “Proportion of CHGA-negative cells (both Ki67-positive and Ki67-negative) as compared with a control” value was “markedly decreased”; the “Proportion of insulin-positive (and NKX6.1-positive) cells as compared with a control” value is “markedly increased”. In assay [2] (first experiment), the “Proportion of CHGA-negative and Ki67-negative cells” value turned out to be 11.4%; the “Proportion of CHGA-negative and Ki67-positive cells” value is given as 0.8%; the “Proportion of insulin-positive and NKX6.1-positive cells” value came to 22.4%. Besides, in assay [2] (second experiment), the “Proportion of CHGA-negative and Ki67-negative cells” value turned out to be 12.4%; the “Proportion of CHGA-negative and Ki67-positive cells” value came to 0.2%; the “Proportion of insulin-positive and NKX6.1-positive cells” value amounted to 23.0%. In assay [2] (setting [3]), the “Proportion of CHGA-negative cells (both Ki67-positive and Ki67-negative) as compared with a control” value is given as “markedly decreased”; the “Proportion of the cells of interest (insulin-positive and NKX6.1-positive cells) as compared with a control” value is “markedly increased”.

(Values after patent publication US12545896B2, “Growth inhibitor” (Orizuru Therapeutics, Inc., priority 2019, dated 2026).)
